Among the data in US20140243335A1, “SUBSTITUTED HYDOXAMIC ACIDS AND USES THEREOF” (Millennium Pharmaceuticals, Inc., priority 2010, published 2014) are inhibition values, retold here.

This test deals with T1, purified human HDAC6 (Homo sapiens, UniProt Q9UBN7).
T1 construct: purchased BPS Bioscience 5006
T1 sequence (Q9UBN7 1-1215): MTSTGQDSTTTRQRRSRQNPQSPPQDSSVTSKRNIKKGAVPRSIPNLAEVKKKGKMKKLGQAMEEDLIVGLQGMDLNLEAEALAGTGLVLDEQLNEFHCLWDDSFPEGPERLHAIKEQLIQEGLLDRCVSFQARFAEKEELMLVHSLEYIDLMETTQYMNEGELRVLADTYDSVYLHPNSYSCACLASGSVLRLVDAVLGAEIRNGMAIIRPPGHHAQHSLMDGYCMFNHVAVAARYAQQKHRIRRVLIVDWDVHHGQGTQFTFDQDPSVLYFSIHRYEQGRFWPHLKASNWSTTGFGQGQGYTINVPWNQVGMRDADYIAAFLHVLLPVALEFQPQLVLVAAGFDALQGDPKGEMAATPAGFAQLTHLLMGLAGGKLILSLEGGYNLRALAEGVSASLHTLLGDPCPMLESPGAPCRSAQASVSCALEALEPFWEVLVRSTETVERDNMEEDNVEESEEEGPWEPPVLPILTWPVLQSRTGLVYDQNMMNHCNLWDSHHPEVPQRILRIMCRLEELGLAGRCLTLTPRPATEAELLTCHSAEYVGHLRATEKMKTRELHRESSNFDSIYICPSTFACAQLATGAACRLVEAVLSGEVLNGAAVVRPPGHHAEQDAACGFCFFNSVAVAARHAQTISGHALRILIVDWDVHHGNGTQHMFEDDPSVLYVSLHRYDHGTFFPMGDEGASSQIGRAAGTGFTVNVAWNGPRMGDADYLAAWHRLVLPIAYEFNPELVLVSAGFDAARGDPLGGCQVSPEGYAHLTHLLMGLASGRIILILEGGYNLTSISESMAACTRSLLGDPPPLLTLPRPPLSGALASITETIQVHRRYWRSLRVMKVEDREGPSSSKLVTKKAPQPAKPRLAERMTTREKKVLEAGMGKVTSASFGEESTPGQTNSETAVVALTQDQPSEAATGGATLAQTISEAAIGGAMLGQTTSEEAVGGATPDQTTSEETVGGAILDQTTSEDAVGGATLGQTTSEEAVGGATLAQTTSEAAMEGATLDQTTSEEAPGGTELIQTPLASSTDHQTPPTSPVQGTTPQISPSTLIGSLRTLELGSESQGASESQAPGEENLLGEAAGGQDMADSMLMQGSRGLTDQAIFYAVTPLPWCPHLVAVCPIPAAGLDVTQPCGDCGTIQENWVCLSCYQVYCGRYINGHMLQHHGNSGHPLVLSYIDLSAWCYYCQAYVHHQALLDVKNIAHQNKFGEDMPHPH
Description: HDAC6 Enzyme Assay. In kind it is biochemical. Conditions: HDAC6 inhibition at a compound concentration of 0.412 μM; read-out: Percent Inhibition at 0.412 μM.
What is called inhibition is the share of the control response that was lost under treatment. For `O=C(NO)c1ccc2c(c1)CCC(Oc1ccnc(C(=O)NC3CCNCC3)c1)C2` (stereo not shown) [Compound I-220, 4-({6-[(hydroxyamino)carbonyl]-1,2,3,4-tetrahydronaphthalen-2-yl}oxy)-N-piperidin-4-ylpyridine-2-carboxamide], the inhibition at 0.412 µM came out at 92%.

On to `CC(C)(C)OC(=O)N1CCC(C2CCc3ccc(C(=O)NO)cc3C2)CC1` (stereo not shown) [Compound I-221, tert-butyl 4-{7-[(hydroxyamino)carbonyl]-1,2,3,4-tetrahydronaphthalen-2-yl}piperidine-1-carboxylate], for which the inhibition at 0.412 µM was 41%.

`CCN1CCC(C)(C(=O)Nc2cc(OC3CCc4cc(C(=O)NO)ccc4C3)ccn2)CC1` (stereo not shown) [Compound I-222, 1-ethyl-N-[4-({6-[(hydroxyamino)carbonyl]-1,2,3,4-tetrahydronaphthalen-2-yl}oxy)pyridin-2-yl]-4-methylpiperidine-4-carboxamide]: the inhibition at 0.412 µM is 91%.

Turning to `CC(C)(C)OC(=O)N1CCC(NC(=O)c2cc(OC3CCc4cc(C(=O)NO)ccc4C3)ccn2)CC1` (stereo not shown) [Compound I-223, tert-butyl 4-({[4-({6-[(hydroxyamino)carbonyl]-1,2,3,4-tetrahydronaphthalen-2-yl}oxy)pyridin-2-yl]carbonyl}amino)piperidine-1-carboxylate], the inhibition at 0.412 µM amounted to 88%.

`CC(C)(C)OC(=O)N1CCC(C(=O)Nc2cc(OC3CCc4cc(C(=O)NO)ccc4C3)ccn2)CC1` (stereo not shown) [Compound I-224, tert-butyl 4-({[4-({6-[(hydroxyamino)carbonyl]-1,2,3,4-tetrahydronaphthalen-2-yl}oxy)pyridin-2-yl]amino}carbonyl)piperidine-1-carboxylate]: the inhibition at 0.412 µM is 94%.

In the case of `O=C(NO)c1ccc2c(c1)CCC(Oc1ccnc(NC(=O)C3CCNCC3)c1)C2` (stereo not shown) [Compound I-225, N-[4-({6-[(hydroxyamino)carbonyl]-1,2,3,4-tetrahydronaphthalen-2-yl}oxy)pyridin-2-yl]piperidine-4-carboxamide], the inhibition at 0.412 µM stood at 95%.

In the case of `CCN(CC)CCNC(=O)c1cc(OC2CCc3cc(C(=O)NO)ccc3C2)ccn1` (stereo not shown) [Compound I-226, N-[2-(diethylamino)ethyl]-4-({6-[(hydroxyamino)carbonyl]-1,2,3,4-tetrahydronaphthalen-2-yl}oxy)pyridine-2-carboxamide], the inhibition at 0.412 µM was 93%.

In the case of `CCN1CCC(NC(=O)c2cc(OC3CCc4cc(C(=O)NO)ccc4C3)ccn2)CC1` (stereo not shown) [Compound I-227, N-(1-ethylpiperidin-4-yl)-4-({6-[(hydroxyamino)carbonyl]-1,2,3,4-tetrahydronaphthalen-2-yl}oxy)pyridine-2-carboxamide], the inhibition at 0.412 µM stood at 95%.

In the case of `O=C(NO)c1ccc2c(c1)CCC(Oc1ccnc(Nc3ccc(Cl)cc3)c1)C2` (stereo not shown) [Compound I-228, 6-({2-[(4-chlorophenyl)amino]pyridin-4-yl}oxy)-N-hydroxy-5,6,7,8-tetrahydronaphthalene-2-carboxamide], the inhibition at 0.412 µM was found to be 90%.

For the compound `O=C(NO)c1ccc2c(c1)CCC(Oc1ccccc1)C2` (stereo not shown) [Compound I-229, N-hydroxy-6-phenoxy-5,6,7,8-tetrahydronaphthalene-2-carboxamide], the inhibition at 0.412 µM is 92%.
